Test results from PubChem BioAssay AID276 (DTP/NCI, 2004).
Where “and” joins values, the source holds several entries; their conditions need not be identical. Equal values may be shown once. Toxic doses and inconclusive results are not listed. How the source made its calls: active means survival T/C of 150% or more; inactive means T/C below 125% in these data. Residues, ends and D or L forms follow the SMILES beside them. *: point of attachment. Trt = c1ccc(C(c2ccccc2)(c2ccccc2)*)cc1; Cbz = O=C(OCc1ccccc1)*; Bn = c1ccc(C*)cc1; βAla = NCCC(=O)O

Test system: B6C3F1 mice, Lewis lung carcinoma iv, survival T/C
Test: NCI In Vivo Anticancer Drug Screen. Data for tumor model Lewis Lung Carcinoma (intravenous) in B6C3F1 mice
Conditions: endpoint: median survival time, schedule: Q01DX009 (ip), higher = longer survival
Protocol: The antitumor activity of compounds was measured in mice bearing transplantable tumors. Survival or tumor size were measured and the results are expressed as the measurement made in the treated group (T) divided by the measurement made in the vehicle treated control group (C). The tumor model used in this assay is Lewis Lung Carcinoma (intravenous) in B6C3F1 mice

[1] = dose: 6.25 mg/kg/injection, vehicle: Klucel (hydroxypropylcellulose) (HPC)
[2] = dose: 12.5 mg/kg/injection, vehicle: Klucel (hydroxypropylcellulose) (HPC)
[3] = dose: 25.0 mg/kg/injection, vehicle: Klucel (hydroxypropylcellulose) (HPC)
[4] = dose: 50.0 mg/kg/injection, vehicle: Klucel (hydroxypropylcellulose) (HPC)
[5] = dose: 100.0 mg/kg/injection, vehicle: Klucel (hydroxypropylcellulose) (HPC)
[6] = dose: 12.5 mg/kg/injection, vehicle: distilled water + Tween-80
[7] = dose: 12.5 mg/kg/injection, vehicle: saline with Tween-80
[8] = dose: 25.0 mg/kg/injection, vehicle: saline with Tween-80
[9] = dose: 50.0 mg/kg/injection, vehicle: saline with Tween-80
[10] = dose: 100.0 mg/kg/injection, vehicle: saline with Tween-80
[11] = dose: 200.0 mg/kg/injection, vehicle: saline with Tween-80
[12] = dose: 400.0 mg/kg/injection, vehicle: saline with Tween-80
[13] = dose: 6.25 mg/kg/injection, vehicle: saline with Tween-80
[14] = dose: 1.56 mg/kg/injection, vehicle: saline with Tween-80
[15] = dose: 3.12 mg/kg/injection, vehicle: saline with Tween-80
[16] = dose: 50.0 mg/kg/injection, vehicle: water
[17] = dose: 100.0 mg/kg/injection, vehicle: water
[18] = dose: 200.0 mg/kg/injection, vehicle: water

Measured: T/C

COc1ccc2[nH]c3c(c2c1)CCNC3CC(C)CCC=C(C)C (stereo unspecified)
inactive: [1] 98 % of control | [2] 98 % of control | [3] 92 % of control | [4] 103 % of control | [5] 105 % of control

CC(C)NC(=O)N(CCCCBr)N=O
inactive: dose: 12.0 mg/kg/injection, vehicle: Klucel (hydroxypropylcellulose) (HPC) 114 % of control | [3] 98 % of control | [4] 116 % of control

CNC(=O)OCc1c(COC(=O)NC)c(-c2ccc(Cl)c(Cl)c2)n2c1Cc1ccccc1C2
inactive: [6] 102 % of control | dose: 25.0 mg/kg/injection, vehicle: distilled water + Tween-80 114 % of control | dose: 50.0 mg/kg/injection, vehicle: distilled water + Tween-80 101 % of control and 105 % of control

COC1=C(C)C(=O)C2=C(C1=O)C1C3CC4=C(C(=O)C(OC)=C(C)C4=O)C(CNC(=O)C(C)=O)N3C(C#N)C(C2)N1C (stereo unspecified)
inactive: dose: 0.12 mg/kg/injection, vehicle: Klucel (hydroxypropylcellulose) (HPC) 101 % of control | dose: 0.25 mg/kg/injection, vehicle: Klucel (hydroxypropylcellulose) (HPC) 108 % of control | dose: 0.5 mg/kg/injection, vehicle: Klucel (hydroxypropylcellulose) (HPC) 107 % of control | dose: 1.0 mg/kg/injection, vehicle: Klucel (hydroxypropylcellulose) (HPC) 113 % of control

COc1ccc2c(c1)CCn1c(C)c(COC(=O)NC(C)C)c(COC(=O)NC(C)C)c1-2
inactive: dose: 3.12 mg/kg/injection, vehicle: distilled water + Tween-80 102 % of control | dose: 6.25 mg/kg/injection, vehicle: distilled water + Tween-80 99 % of control | [6] 87 % of control

N#CCCSC(=S)C1CCCC1=N (stereo unspecified)
inactive: [7] 99 % of control | [8] 103 % of control | [9] 98 % of control | [10] 103 % of control | [11] 105 % of control | [12] 106 % of control

COc1ccc2nonc2c1
inactive: [13] 107 % of control and 112 % of control | [7] 102 % of control and 118 % of control | [8] 101 % of control and 107 % of control | [9] 106 % of control and 109 % of control

O=C1CCCCC1C(=O)C(F)(F)F (stereo unspecified)
inactive: dose: 12.5 mg/kg/injection, vehicle: saline + Tween-80 + alcohol 96 % of control | dose: 25.0 mg/kg/injection, vehicle: saline + Tween-80 + alcohol 111 % of control | dose: 50.0 mg/kg/injection, vehicle: saline + Tween-80 + alcohol 94 % of control

COC(=O)C(CSC(c1ccccc1)(c1ccccc1)c1ccccc1)NC(=O)C(CSCc1ccccc1)NC(=O)CCNC(=O)OCc1ccccc1 (stereo unspecified) ({Cbz-βAla}-Cys(Bn)-Cys(Trt)-OMe; configuration not given here)
inactive: [4] 93 % of control | [5] 98 % of control | dose: 200.0 mg/kg/injection, vehicle: Klucel (hydroxypropylcellulose) (HPC) 97 % of control | dose: 400.0 mg/kg/injection, vehicle: Klucel (hydroxypropylcellulose) (HPC) 100 % of control | dose: 800.0 mg/kg/injection, vehicle: Klucel (hydroxypropylcellulose) (HPC) 98 % of control

CO[C@@H]1[C@H](O)CC[C@]2(CO2)[C@H]1[C@@]1(C)O[C@@H]1CC=C(C)C
inactive: [14] 95 % of control and 101 % of control | [15] 95 % of control and 103 % of control | [13] 93 % of control and 101 % of control | [7] 101 % of control | [8] 106 % of control and 115 % of control | [9] 103 % of control and 107 % of control

[Na+]
inactive: [16] 102 % of control | [17] 99 % of control | [18] 95 % of control | dose: 400.0 mg/kg/injection, vehicle: water 94 % of control | dose: 800.0 mg/kg/injection, vehicle: water 108 % of control

O=C(O)C1CC(c2ccccc2)=NN1c1ccccc1 (stereo unspecified)
inactive: dose: 12.5 mg/kg/injection, vehicle: water 102 % of control | dose: 25.0 mg/kg/injection, vehicle: water 97 % of control | [16] 102 % of control | [17] 112 % of control | [18] 106 % of control

CCCCCC[C@H]([C@H](C)O)n1cnc2c(N)ncnc21
inactive: dose: 3.12 mg/kg/injection, vehicle: Klucel (hydroxypropylcellulose) (HPC) 88 % of control | [1] 101 % of control | [2] 114 % of control | [3] 94 % of control | [4] 109 % of control | [5] 105 % of control

COC(=O)c1ccoc1
inactive: dose: 12.5 mg/kg/injection, vehicle: saline 100 % of control | dose: 25.0 mg/kg/injection, vehicle: saline 111 % of control | dose: 50.0 mg/kg/injection, vehicle: saline 97 % of control | dose: 100.0 mg/kg/injection, vehicle: saline 108 % of control | dose: 200.0 mg/kg/injection, vehicle: saline 117 % of control

COCCCNC1=C(C#N)C(=O)NC(c2cccc([N+](=O)[O-])c2)S1 (stereo unspecified)
inactive: [7] 111 % of control | [8] 93 % of control | [9] 96 % of control | [10] 104 % of control | [11] 93 % of control | [12] 98 % of control

CC(=O)[C@]1(O)Cc2c(O)c3c(c(O)c2[C@@H](OC2CC(N)C(O)C(C)O2)C1)C(=O)c1c(O)cccc1C3=O (stereo partly specified)
inactive: dose: 0.03 mg/kg/injection, vehicle: saline 107 % of control | dose: 0.06 mg/kg/injection, vehicle: saline 96 % of control | dose: 0.12 mg/kg/injection, vehicle: saline 108 % of control | dose: 0.25 mg/kg/injection, vehicle: saline 117 % of control

Cc1cc(O)c2c(c1O)C(=O)C13C(=C2O)C(=O)C2C(O)C1C1C(O)C3C(=O)C3=C(O)c4c(O)cc(C)c(O)c4C(=O)C321 (stereo unspecified)
inactive: dose: 0.78 mg/kg/injection, vehicle: saline with Tween-80 100 % of control | [14] 91 % of control | [15] 90 % of control

COc1ccc(C[C@H](N)C(=O)NC2C(CO)OC(n3cnc4c(N(C)C)ncnc43)C2O)cc1 (stereo partly specified)
inactive: dose: 5.0 mg/kg/injection, vehicle: saline 99 % of control | dose: 10.0 mg/kg/injection, vehicle: saline 104 % of control | dose: 20.0 mg/kg/injection, vehicle: saline 114 % of control | dose: 40.0 mg/kg/injection, vehicle: saline 109 % of control | dose: 80.0 mg/kg/injection, vehicle: saline 114 % of control

NCCCC(N)(C(=O)O)C(F)F (stereo unspecified)
inactive: dose: 50.0 mg/kg/injection, vehicle: distilled water + alcohol 100 % of control | dose: 100.0 mg/kg/injection, vehicle: distilled water + alcohol 104 % of control | dose: 200.0 mg/kg/injection, vehicle: distilled water + alcohol 105 % of control | dose: 400.0 mg/kg/injection, vehicle: distilled water + alcohol 103 % of control | dose: 800.0 mg/kg/injection, vehicle: distilled water + alcohol 96 % of control
